The target in assay [1] is human recombinant 5-HT2A receptor (Homo sapiens (Human), UniProt P28223). The assay is described as follows: 5-HT2A receptor binding inhibition test ([3H]-Ketanserin). The note with it: Jump-In HEK cell membrane, 25° C. 1.5 hours. The essentials:
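Membranes from Jump-In HEK cells expressing the receptor were incubated with [3H]-ketanserin at about its Kd (from Scatchard analysis) in Tris-HCl pH 7.4 buffer for 1.5 h at 25° C, then filtered and counted. Non-specific binding was defined with 500 μmol/L serotonin, and Ki was taken from dose-response curves.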

Assay [2] concerns the target human ether-a-go-go related gene (hERG) channel (Homo sapiens (Human), UniProt Q12809). In words: hERG test (FluxOR II potassium channel assay, FLIPR). The assay is classed as cell-based. The note with it: CHO cells expressing hERG channel, thallium flux fluorescence, 10 minutes. The protocol:
Test Example 3: hERG Test
For the purpose of evaluating risk of an electrocardiogram QT interval prolongation of the compound of the present invention, effects of the compound are studied by evaluating the activity of potassium channel using CHO cells expressing human ether-a-go-go related gene (hERG) channel.
Evaluation is performed using a FluxORII Green Potassium IonCgannel Assay kit
(Invitrogen: Molecular Probes).
Cells are seeded in a 384-assay plate (8000 cells/well/40 μL) and incubated (37° C., […] overnight. After replacing the medium with a Wash buffer (1×HBSS, 20 mM HEPES) with a microplate washer, a fluorescent indicator is added to the medium and allowed to incubate (37° C., 5% CO2) for 1 hour for incorporation of the fluorescent indicator into cells.
A cell plate is placed on a cell-based kinetic assay system FLIPR (Molecular Devices, LLC.), and the compound is added to the cells so as to have a desired concentration and reacted for 10 minutes. When a mixed solution of potassium and thallium as a stimulator is added thereto, the potassium channel is opened, and thallium that flowed into the cells binds to the fluorescent indicator, so that the intracellular fluorescence signal increases, and the potassium channel current is detected as a fluorescence signal. For the inhibition rate at each concentration, the signal intensity when E-4031 is added to cells at a final concentration of 10.3 μmol/L is defined as an inhibition rate of 100%, and the signal intensity when DMSO is added to cells at a final concentration of 0.5% is defined as an inhibition rate of 0%. Then, the inhibition rate is calculated from the signal intensity at each concentration. IC50 is calculated from the inhibition rate at each concentration.
Background: Block of hERG is tested as a sign of cardiac risk.

Where [3] appears, read: read-out: human serotonin 5-HT2A receptor binding activity Ki.

Read-outs that look alike come from different tables or passages of the source.

Sequence of human ether-a-go-go related gene (hERG) channel (Q12809 whole entry): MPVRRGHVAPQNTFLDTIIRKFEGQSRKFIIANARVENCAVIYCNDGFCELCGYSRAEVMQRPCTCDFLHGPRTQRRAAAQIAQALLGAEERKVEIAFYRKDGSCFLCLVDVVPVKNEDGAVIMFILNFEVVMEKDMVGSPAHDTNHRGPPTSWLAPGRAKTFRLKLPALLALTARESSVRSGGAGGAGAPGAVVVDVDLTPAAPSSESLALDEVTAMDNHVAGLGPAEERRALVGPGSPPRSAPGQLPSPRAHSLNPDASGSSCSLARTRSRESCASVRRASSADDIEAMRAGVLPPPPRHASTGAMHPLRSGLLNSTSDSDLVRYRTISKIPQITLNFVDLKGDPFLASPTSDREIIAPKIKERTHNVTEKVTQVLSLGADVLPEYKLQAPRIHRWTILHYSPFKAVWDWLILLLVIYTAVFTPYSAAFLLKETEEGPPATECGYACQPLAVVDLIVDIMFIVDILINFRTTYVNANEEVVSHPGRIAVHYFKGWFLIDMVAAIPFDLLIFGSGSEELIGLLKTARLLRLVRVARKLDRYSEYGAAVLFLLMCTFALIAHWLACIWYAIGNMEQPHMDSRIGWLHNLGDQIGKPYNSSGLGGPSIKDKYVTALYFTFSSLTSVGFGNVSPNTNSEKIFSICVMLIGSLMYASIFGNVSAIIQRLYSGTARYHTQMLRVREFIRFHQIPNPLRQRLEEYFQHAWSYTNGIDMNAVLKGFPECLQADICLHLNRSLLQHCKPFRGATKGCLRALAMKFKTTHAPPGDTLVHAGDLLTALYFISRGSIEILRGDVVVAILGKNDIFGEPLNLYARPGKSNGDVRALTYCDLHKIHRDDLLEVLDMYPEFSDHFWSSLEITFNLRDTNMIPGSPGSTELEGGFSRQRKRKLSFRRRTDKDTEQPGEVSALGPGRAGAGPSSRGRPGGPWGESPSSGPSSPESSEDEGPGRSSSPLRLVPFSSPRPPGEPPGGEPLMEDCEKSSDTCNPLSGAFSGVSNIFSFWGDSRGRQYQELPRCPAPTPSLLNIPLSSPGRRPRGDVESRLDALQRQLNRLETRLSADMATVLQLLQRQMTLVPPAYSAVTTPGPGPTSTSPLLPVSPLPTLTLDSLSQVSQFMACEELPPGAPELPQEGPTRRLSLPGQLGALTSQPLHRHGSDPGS
Sequence of human recombinant 5-HT2A receptor (P28223 whole entry): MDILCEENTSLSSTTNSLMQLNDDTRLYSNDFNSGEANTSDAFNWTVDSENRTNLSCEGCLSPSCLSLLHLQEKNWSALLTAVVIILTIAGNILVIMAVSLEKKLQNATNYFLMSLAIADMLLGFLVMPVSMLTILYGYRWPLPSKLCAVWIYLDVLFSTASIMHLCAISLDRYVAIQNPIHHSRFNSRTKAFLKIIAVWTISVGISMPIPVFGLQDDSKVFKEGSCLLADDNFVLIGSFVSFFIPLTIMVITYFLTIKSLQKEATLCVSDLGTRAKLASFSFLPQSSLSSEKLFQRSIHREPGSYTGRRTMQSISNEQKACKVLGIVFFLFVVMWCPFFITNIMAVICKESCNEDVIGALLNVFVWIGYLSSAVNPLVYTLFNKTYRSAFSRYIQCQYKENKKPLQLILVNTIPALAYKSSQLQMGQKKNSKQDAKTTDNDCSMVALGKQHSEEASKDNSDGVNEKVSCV

Regarding `CC(C)COc1ccc(CN(Cc2coc(CF)n2)C2=NOC3(CCN(C)CC3)N2)cc1` [Compound I-067], the Ki (usually the dissociation constant of the complex between target and ligand, obtained from inhibition or displacement) in assay [1] (read-out: h-5-HT2A Ki) is under 10 nM; in assay [1] (setting [3]), 1.37 nM. In addition, in assay [2], the IC50 – broadly, the concentration that inhibits the measured activity by half – came to 16300 nM.
For `CCCCOc1ccc(CN(Cc2coc(C)n2)C2=NOC3(CCN(C)CC3)N2)cc1` [Compound I-080], the figures for the Ki in assay [1] (read-out: h-5-HT2A Ki) and in assay [1] (setting [3]) were under 10 nM and 0.823 nM, respectively. Besides, the IC50 in assay [2] was over 52000 nM.
In the case of `Cc1nc(CN(Cc2ccc(OCC(F)(F)C(F)(F)F)cc2F)C2=NOC3(CCN(C)CC3)N2)co1` [Compound I-104], in assay [1] (setting [3]), the Ki came to 1.56 nM. Half-maximal inhibition in assay [2] (IC50) required 20600 nM.
Taken in the same sequence, the figures for `CCCCOc1ccc(CN(Cc2coc(CF)n2)C2=NOC3(CCN(C)CC3)N2)cc1` [Compound I-105] were 0.979 nM and 17900 nM.
The matching figures for `CCCCOc1ccc(CN(Cc2cnn(C)n2)C2=NOC3(CCN(C)CC3)N2)cc1` [Compound I-113]: 1.2 nM and over 52000 nM.
With `CCCCOc1ccc(CN(Cc2coc(C)n2)C2=NOC3(CCN(C)CC3)N2)c(F)c1` [Compound I-114], the Ki in assay [1] (setting [3]) was found to be 0.74 nM. In assay [2], this molecule registered an IC50 of over 52000 nM.
Taken in the same sequence, the figures for `CCCCOc1ccc(CN(Cc2coc(C)n2)C2=NOC3(CCN(C)CC3)N2)cc1F` [Compound I-115] were 0.703 nM and over 52000 nM.
Consider `Cc1nc(CN(Cc2ccc(CCC(F)(F)F)cc2)C2=NOC3(CCN(C)CC3)N2)co1` [Compound I-125], for which, in assay [1] (setting [3]), the Ki was found to be 1.26 nM. In addition, the IC50 in assay [2] amounted to 20000 nM.
Taken in the same sequence, the figures for `Cc1nc(CN(Cc2ccc(OCC(C)C)cc2F)C2=NOC3(CCN(C)CC3)N2)co1` [Compound I-128] were 1.36 nM and over 52000 nM.

The values above are taken from patent publication US20250026765A1, “SPIROHETEROCYCLE DERIVATIVE HAVING SEROTONIN RECEPTOR BINDING ACTIVITY” (Shionogi & Co., Ltd., priority 2021, published 2025).
